How the values were obtained:
NCI60 cancer cell lines = experiment: NCI60 growth assay: growth inhibition (GI50) profiles of therapeutic agents and their similarity; format: cell-based, human
Experimental: The human tumor cell lines of the cancer screening panel may be grown in RPMI 1640 medium containing 5% fetal bovine serum and 2 mM L-glutamine. Cells may be inoculated into 96 well microtiter plates in 100 μL at plating densities ranging from 5,000 to 40,000 cells/well depending on the doubling time of individual cell lines. After cell inoculation, the microtiter plates may be incubated at 37° C., 5% CO2, 95% air and 100% relative humidity for 24 hours prior to addition of experimental agent (e.g., an anthracycline, such as doxorubicin, epirubicin, daunorubicin, or idarubicin, or an anthracycline-containing liposome, such as a doxorubicin-containing liposome (e.g., 2B3-101)). […]
Following agent addition (e.g., an anthracycline, such as doxorubicin, epirubicin, daunorubicin, or idarubicin, or an anthracycline-containing liposome, such as a doxorubicin-containing liposome (e.g., 2B3-101)), the plates may be incubated for an additional 48 h at 37° C., 5% CO2, 95% air, and 100% relative humidity. […] Bound stain may be subsequently solubilized with 10 mM trizma base, and the absorbance may be read on an automated plate reader at a wavelength of 515 nm. […] Percentage growth inhibition may be calculated as: [(Ti−Tz)/(C−Tz)]×100 for concentrations for which Ti>/=Tz [(Ti−Tz)/Tz]×100 for concentrations for which Ti<Tz […]

breast cancer = experiment: Clinical trial of 137 breast cancer patients treated with epirubicin (progression free survival, DRP validation); format: in vivo, human
Description: The biomarkers of sensitivity and resistance identified in Example 2 and shown in Tables 3 and 4 have been validated in a clinical trial of 137 breast cancer patients treated with epirubicin. Patients were examined every 9 to 12 weeks by CT scan and clinical evaluation. After patient informed consent, mRNA was isolated from formalin fixed paraffin embedded tumor tissue from diagnostic biopsies and analyzed using Affymetrix arrays. Blinded predictions of epirubicin efficacy were compared to clinical data collected retrospectively from patient medical records. Statistical analysis was performed using Cox proportional hazards model adjusted for treatment line. The primary endpoint was progression free survival (PFS). Median time to progression was 9.3 months (95% CI: 7.2-13.2). Of the 137 patients, four received epirubicin more than once.
The estimated hazard ratio was 0.56 (90% CI: 0.35-0.89) comparing two patients with DRP score differing by 50 percentage points. The estimated median time to progression for a patient with a DRP value of 25% was 7 months versus 13 months for a patient with a DRP value of 75%. No interaction with previous adjuvant chemotherapy was observed (p=0.98).

Row | Compound | effect on the NCI60 tumor cell lines in multidimensional scaling plot of growth inhibition profiles (NCI60 cancer cell lines; NCI60 growth assay, FIG. 1) | anti-tumor activity compared with doxorubicin (NCI60 cancer cell lines) | Median time to progression (breast cancer; 137 breast cancer patients treated with epirubicin) | estimated median time to progression (breast cancer; patient with a DRP value of 25%) | estimated median time to progression (breast cancer; patient with a DRP value of 75%)
1 | CC(=O)[C@]1(O)Cc2c(O)c3c(c(O)c2[C@@H](O[C@H]2C[C@H](N)[C@H](O)[C@H](C)O2)C1)C(=O)c1ccccc1C3=O [idarubicine, idarubicin] | slightly different effect on the NCI60 tumor cell lines |  |  |  | 
2 | COc1cccc2c1C(=O)c1c(O)c3c(c(O)c1C2=O)C[C@@](O)(C(=O)CO)C[C@@H]3O[C@H]1C[C@H](N)[C@@H](O)[C@H](C)O1 [epirubicin] |  | nearly identical to that of doxorubicin | 9.3 months | 7 months | 13 months

From patent US10900089B2, “Methods for predicting drug responsiveness in cancer patients” (Oncology Venture ApS, priority 2017, dated 2021)
